Results on one compound are retold here after US12484574B2, “Agent for promoting undifferentiation and cryoprotective agent using aprotic zwitterion” (JAPAN SCIENCE AND TECHNOLOGY AGENCY, priority 2019, dated 2025).

Entries after “also recorded” stand apart in the source; their conditions may differ.

Data set [1] in a line: Glass transition temperature and heat quantity by differential scanning calorimetry (DSC). Format: physicochemical. Conditions: 10 wt % in purified water, cooling −1° C./min, heating 5° C./min. As for the experimental part:
The glass transition temperature and the heat quantity were determined by differential scanning calorimetry (DSC). The measurement was performed with a cooling rate set to −1° C./min an d a heating rate set to 5° C./min.
A general note: DSC measures the heat that a sample takes up or gives off during a temperature scan.

Data set [2] has as its system Human skin fibroblasts / Mouse fibroblasts C57BL/6-GFP. Nature of the data set: Cell state 24 hours after start of culture, slow freezing method (microscope). The format is cell-based. The conditions noted are these: 5% by weight in H2O, thawed, cultured 24 hours, cell type of FIG. 5 not stated. As for the experimental part: (§1) The cells to be frozen (two types) were centrifugally recovered by trypsin treatment and diluted with Dulbecco's modified Eagle medium (DMEM), and each cell concentration was measured. The types and cell concentrations of the cells are as follows. • Human skin fibroblasts 5.0×10^5 cells/100 μl • Mouse fibroblasts C57BL/6-GFP 5.0×10^5 cells/100 μl
(§2) Subsequently, the cells of each type were dispensed at 1 ml/tube to 1.5 ml tubes, centrifuged, suspended in 100 μl each of the cryopreservation solutions described above, and frozen at a cooling temperature of −80° C. at a cooling rate of −1° C./min using a cell freezing container Mr. Frosty®.
1 ml of a medium was added to the cryopreservation vial for thawing, and a supernatant was removed by centrifugation. Subsequently, the cells obtained by centrifugation were resuspended in a medium, followed by the measurement of a viable cell count. Then, culture was started in a 6-well plate.
24 hours after the start of culture, the sample was fixed in 4% paraformaldehyde (PFA) and observed under a microscope.

Data set [3] concerns human fibroblasts. Nature of the data set: Influence on cell cycle (Click-iT Plus EdU cell proliferation assay). The format is cell-based. The conditions noted are these: 2% addition; compared with no addition; FIG. 11. How it is done: The cells used were human fibroblasts.
The test groups were 1% addition groups and 2% addition groups of DMSO and HLS (OE2imC3C) vs. a control.
Cell cycle analysis was conducted using Click-iT® Plus EdU cell proliferation assay (Thermo Fisher Scientific Inc.) containing 5-ethynyl-2′-deoxyuridine (EdU) according to the manufacturer's protocol. The cells were incubated in 10 μM EdU for 1 hour, treated with trypsin, then fixed in 4% PFA, and labeled with Alexa Fluor 647 picolyl azide. The cells were stained with 4′,6-diamidino-2-phenylindole (DAPI) and analyzed with BD FACSAria™ III (BD Biosciences).

Data set [4] has as its system Wild-type zebrafish AB*. The data set is described as follows: Influence on development of zebrafish. The format is in vivo. Conditions: fertilized eggs cultured 1.5 to 24 hours. How it is done: All experiments were conducted based on a protocol approved by the animal experiment committee of Kanazawa University. Wild-type zebrafish AB* was raised at 28.5° C. with 14-hour light/10-hour dark cycles in a circulating water system. The medium used was E3 medium (5 mM NaCl, 0.17 mM KCl, 0.33 mM CaCl2, 0.33 mM MgSO4). The medium was supplemented with 1%, 2%, 5% or 10% DMSO or HLS (OE2imC3C). For each test group, eggs were fertilized and then cultured for 1.5 to 24 hours. The embryos thus cultured were washed with E3 medium twice and treated with 1-phenyl-2-thiourea (FUJIFILM Wako Pure Chemical Corp.) in order to prevent pigmentation. The embryos were stained with 0.6 mg/mL o-dianisidine (Tokyo Chemical Industry Co., Ltd.) for 15 minutes and fixed in 4% paraformaldehyde (FUJIFILM Wako Pure Chemical Corp.). The embryos were washed with phosphate-buffered saline containing 0.1% Tween (Sigma-Aldrich Co. LLC) twice. The survival rate was similar between DMSO and HLS (OE2imC3C) up to the 2% addition groups, whereas the survival rate differed largely therebetween in the 5% addition groups.

For data set [5], the system named is Human skin fibroblasts. The data set is described as follows: Cell freezing, slow freezing method, viable cell count after thawing (Examples 2, 3). The format is cell-based. The conditions noted are these: 5% by weight in H2O; frozen to −80° C. at −1° C./min; FIG. 3, FIG. 6. How it is done:
CultureSure® cryopreservation solution (manufactured by FUJIFILM Wako Pure Chemical Corp.) (hereinafter, referred to as “FM”) • H2O • 5% by weight of DMSO/H2O • 5% by weight of OE2imC3C/H2O
as §1, §2
1 ml of a medium was added to the cryopreservation vial for thawing, and a supernatant was removed by centrifugation. Subsequently, the cells obtained by centrifugation were resuspended in a medium, followed by the measurement of a viable cell count. Then, culture was started in a 6-well plate. […]
The cells to be frozen were centrifugally recovered by trypsin treatment and diluted with Dulbecco's modified Eagle medium (DMEM), and the cell concentration was measured. […]

`COCCOCCn1cc[n+](CCCC(=O)[O-])c1` [OE2imC3C] had a Heat quantity in data set [1] of -198.7 J/g. The same compound registered a Tg in data set [1] of −85.69 °C. For the same compound, the “cell state 24 hours after the start of culture” value in data set [2] is “confirmed to adhere to the dish bottom”. The “influence on cell cycle (G0/G1 phase, S phase)” value in data set [3] was “little influence”. Besides, the Survival rate in data set [4] (Concentration 1 % (v/v for DMSO, w/v for HLS) in E3 medium) is recorded as 27/27; in data set [4] (Concentration 2 % (v/v for DMSO, w/v for HLS) in E3 medium) it was 27/27; in data set [4] (Concentration 5 % (v/v for DMSO, w/v for HLS) in E3 medium), 27/27; in data set [4] (Concentration 10 % (v/v for DMSO, w/v for HLS) in E3 medium) it was 0/27. Also, the “viable cell count after thawing” value in data set [5] is “larger viable cell count than that in the case of using conventional DMSO; also recorded: superior to the commercially available cryopreservation solution (FM)”.
